This assay has as its system Plasmodium falciparum. As to the kind of experiment: GSK_TCMDC: Inhibition of Plasmodium falciparum 3D7 in whole erythrocytes, using parasite LDH activity as an index of growth. In kind it is functional, organism-based. Particulars: Plasmodium falciparum, 3D7.
In turn, `Cc1ccnc(NC(c2cccc(Cl)c2Cl)c2ccc3cccnc3c2O)c1` (configuration not stated) came in with an XC50 of 1000 nM.
The figure for `NC(=O)c1cnc2cc(-c3ccoc3)ccc2c1Nc1ccc(NC(=O)Nc2ccccc2Cl)cc1` is 538 nM.
The figure for `CN(C)Cc1ccc(-c2cccc(NC(=O)c3ccc(Cl)cc3)c2)cc1` is 900 nM.
The figure for `COc1ccc(CCNCCCCNCCc2ccc(OC)c3ccccc23)c2ccccc12` is 453 nM.
Take `Nc1c(Cl)cc(C(O)CNCCCCCOCCc2ccc3ccccc3n2)cc1Cl` (configuration not stated): the XC50 was 1020 nM.
Under `Cc1[nH]c(C)c(-c2ccc(-c3ccc(OC(F)(F)F)cc3)nc2)c(=O)c1Br` stands 249 nM.
Under `O=C(Nc1ccccc1Cc1ccccc1)c1ccccc1[N+](=O)[O-]` stands 860 nM.
The figure for `O=C(Nc1ccc(-c2cccc(-c3nc4ccccc4[nH]3)c2)cc1)Nc1ccsc1` is 246 nM; for `COc1ccc2nccc([C@@H](O)CN3CCC(NCc4cc5cccc(OCc6ccccc6)c5[nH]4)CC3)c2c1` it is 899 nM; for `COc1cccc(CCNCCCCCCNCCc2ccc(Cl)cc2)c1` it is 1010 nM.
Compound `CO/N=C(\C)c1ccc2c(c1)CCN(CCC1CCC(NC(=O)c3cccc(-c4noc(C)n4)c3)CC1)CC2` (configuration not stated) yielded an XC50 of 244 nM.
For the compound `N#Cc1ccc2c(c1)CCN(CCC1CCC(NC(=O)/C=C/c3c[nH]c4ccc(F)cc34)CC1)CC2` (configuration not stated), the XC50 amounted to 692 nM.
The compound `Cc1ccc2nc(C)n(C3CCN(C(=O)Cc4ccc(F)c(F)c4)CC3)c2c1` returned an XC50 of 474 nM.
Under `NS(=O)(=O)c1ccc(CNc2ccc3ncc(-c4ccc(Cl)cc4)n3n2)cc1` stands 284 nM.
The figure for `CCCCCOc1ccc(CC(C)NCC(O)c2cccc(Cl)c2)cc1` (configuration not stated) is 653 nM; for `COc1ccc2nccc([C@@H](O)CN3CCC(NCc4ccc5c(c4)NC(=O)CO5)CC3)c2c1` it is 1660 nM; for `CC(=O)Nc1ccc(CN(Cc2cccc(OC(C)(C)C)c2)Cc2ccc3c(c2)OCCO3)cc1` it is 136 nM.
Under `CCCc1cc(Cc2cnc(N)nc2N)cc(CCC)c1OCCCCCC(=O)OCC` stands 51.7 nM; under `Cc1ccc(CN2CCCN(Cc3cccc(C(=O)Nc4ccc(C(C)(C)C)cc4)c3)CC2)s1`, 1130 nM.
`CNCc1cccc2nc(-c3csc(Cc4cc(Cl)ccc4OCC(C)C)n3)[nH]c12` returned an XC50 of 718 nM.
The figure for `Cc1cccc2nc(-c3ccc(-c4ccc(CNCc5cccc(N)c5)cc4)cc3)[nH]c12` is 565 nM; for `O=C(NCC1CCN(CCN2CCC(c3cn(CCO)c4ccccc34)CC2)CC1)c1ccc(-c2ccc(C(F)(F)F)cc2)cc1` it is 438 nM; for `CN(CCCCCN1CCC(NC(=O)Nc2ccc(Oc3ccccc3)cc2)C1)C(=O)/C=C/c1ccc(Cl)c(Cl)c1` (configuration not stated) it is 421 nM.
Under `COc1ccc(Cc2c(C)nc3nc(N)nc(N)c3c2C)cc1` stands 284 nM; under `O=C(C=Cc1ccc(Cl)c(Cl)c1)NCCCCCN1CCCC(CCCNC(=O)C2CC2c2ccccc2)C1` (configuration not stated), 1130 nM; under `O=S(=O)(/C=C/c1ccccc1)N(Cc1ccc(-c2ccc(CNCCc3ccccn3)cc2)cc1)CC1CCCCN1` (configuration not stated), 742 nM.
Under `COc1ccc(-c2ccc(NC(=O)c3cccc(F)c3)cc2)cc1CNC(C)C` stands 808 nM.
The compound `FC(F)(F)c1ccc(NC(=S)N2CCC(CN3CCC(c4c[nH]c5ccccc45)CC3)CC2)cc1` yielded an XC50 of 663 nM.
Under `CCCCc1ccc(-c2ccc3[nH]c(C)c(Br)c(=O)c3c2)cc1` stands 105 nM.
The compound `O=C(/C=C/c1ccc(Cl)c(Cl)c1)N1CCN(C(=O)Nc2cccc(C(F)(F)F)c2)CC1` yielded an XC50 of 704 nM.
Under `O=C(Nc1ccc(Cl)cc1)c1cc(Cl)ccc1NC(=O)C1(c2ccc(Cl)cc2)CCCC1` stands 1100 nM.
Under `Cc1ccc(NC(=O)c2cccc(N3CCN(c4ccncc4)CC3)c2)cc1F` stands 1300 nM; under `Cc1c(C(=O)N2CCc3cc4nccc(N5CCN6CCC[C@H]6C5)c4cc32)cnn1-c1ccc(C#N)cc1`, 994 nM; under `CN1CCCN(c2ccnc3cc4c(cc23)N(C(=O)c2ccccc2Cl)CC4)CC1`, 1180 nM.
For `O=C(/C=C/c1ccc(C(F)(F)F)cc1)NCCCCCN1CCN(C(=O)Nc2ccc(Cl)cc2)CC1`, the XC50 was 1010 nM.
In the case of `CCCC(C)NC(=O)/C=C/c1ccccc1-c1cccc(OC)c1` (configuration not stated), the XC50 stood at 1250 nM.
The figure for `O=C(NCc1ccc(Cl)cc1)c1ccc(CN2CCCN(CC3CCCCC3)CC2)cc1` is 1700 nM; for `OC(CNc1ccnc(Nc2ccc(Cl)cc2)n1)c1ccc(C(F)(F)F)cc1` (configuration not stated) it is 771 nM; for `O=C(/C=C/c1ccc(Cl)c(Cl)c1)NC1CCC(CN2CCC(c3cc4ccccc4[nH]3)CC2)CC1` (configuration not stated) it is 987 nM.
The figure for `COC1CCC(C(=O)Nc2ccc(-c3cccc(-c4nc5cccc(C)c5[nH]4)c3)cc2)CC1` (configuration not stated) is 585 nM.
Compound `Cc1ccc2sc(N(CCCn3ccnc3)C(=O)c3ccco3)nc2c1C` returned an XC50 of 966 nM.
Take `CCCCCCN1CCC(CNCc2cccc(Cl)c2)CC1`: the XC50 stood at 1220 nM.
The figure for `COc1ccc(CNC2Cc3ccccc3C2)cc1-c1ccc(S(=O)(=O)NCc2ccccc2)s1` is 832 nM; for `CC1=C(C(=O)Nc2ccccc2)C(c2ccc([N+](=O)[O-])cc2)n2ncc(C(=O)Nc3ccccc3)c2N1` (configuration not stated) it is 1240 nM; for `NCCNS(=O)(=O)c1ccc(-c2ccnc3[nH]c(-c4ccncc4)cc23)cc1` it is 840 nM.
The figure for `CS(=O)(=O)Nc1ccc2[nH]cc(C3CC4CCC(C3)N4CC3CCC(NC(=O)/C=C/c4ccc(Cl)c(Cl)c4)CC3)c2c1` (configuration not stated) is 872 nM; for `N#Cc1c(Cl)cccc1Oc1ccc(S(=O)(=O)N2CCC(CN3CCC(c4c[nH]c5ccccc45)CC3)CC2)cc1` it is 745 nM.
The figure for `O=C(Nc1ccc([N+](=O)[O-])cc1Cl)c1cc(Br)cc(Cc2ccccc2)c1O` is 1290 nM; for `CCOC(=O)c1c(SCc2cccc(F)c2F)[nH]c2ccccc2c1=O` it is 644 nM; for `Cc1ccccc1Nc1nc(Nc2ccccc2)c2ccccc2n1` it is 998 nM.
In turn, `Cn1cnc(CCNC(=O)c2ccc(-c3cccc(-c4nc5cc(F)ccc5[nH]4)c3)cc2)c1` returned an XC50 of 680 nM.
The figure for `COc1ccc(NC(=O)c2ccc(-c3nc(-c4cccc(C(F)(F)F)c4)cs3)cc2)cc1N1CCN(C)CC1` is 818 nM; for `Cn1ccnc1CNC(=O)c1ccc(-c2cccc(-c3nc4cc(C(F)(F)F)ccc4[nH]3)c2)cc1` it is 723 nM; for `NC(=O)c1c(Cl)nc2ccccc2c1Cl` it is 960 nM.
The figure for `Cc1cc2nc(-c3cccc(C(=O)NC4CCN(Cc5ccccc5)CC4)c3)[nH]c2cc1C` is 828 nM.
The figure for `Cc1ccc(Nc2nc(C)cc(N3CCN(CCc4ccccc4)CC3)n2)cc1` is 972 nM; for `Cc1csc(-c2ccc3[nH]cc(C4=CCN(C)CC4)c3c2)n1` it is 754 nM.
In turn, `COc1ccc(C(=O)N2CCC3(CC2)C(=O)N(CC(=O)NCC2CCCCC2)CN3c2ccccc2)c(OC)c1` yielded an XC50 of 119 nM.
Under `CC(C)c1ccc(CN2CCC(CNC(=O)c3cc(-c4ccccc4F)cs3)C2)cc1` (configuration not stated) stands 993 nM.
The figure for `COc1ccc(-c2cc(C(=O)N3CCc4ccccc43)c3ccccc3n2)cc1OC` is 327 nM.
`NC1CCN(Cc2cccc(-c3cccc(-c4nc5ccccc5[nH]4)c3)c2)C1` (configuration not stated): the XC50 worked out at 790 nM.
The figure for `COc1cc(Nc2nccc(N3CCC(NC(=O)Nc4cc(C)ccc4C)C3)n2)cc(OC)c1OC` (configuration not stated) is 1120 nM.

The values are drawn from ChEMBL document CHEMBL1157539, “Thousands of chemical starting points for antimalarial lead identification” (Nature, 2010).
